In the Kinase Knowledgebase extract (Sharma et al. 2016):

Target: MAPK14 (human) (UniProt Q16539)
Test: Inhibition of MAPK14 Kinase Activity

MAPK14 (human), sequence (Q16539 whole entry, looked up): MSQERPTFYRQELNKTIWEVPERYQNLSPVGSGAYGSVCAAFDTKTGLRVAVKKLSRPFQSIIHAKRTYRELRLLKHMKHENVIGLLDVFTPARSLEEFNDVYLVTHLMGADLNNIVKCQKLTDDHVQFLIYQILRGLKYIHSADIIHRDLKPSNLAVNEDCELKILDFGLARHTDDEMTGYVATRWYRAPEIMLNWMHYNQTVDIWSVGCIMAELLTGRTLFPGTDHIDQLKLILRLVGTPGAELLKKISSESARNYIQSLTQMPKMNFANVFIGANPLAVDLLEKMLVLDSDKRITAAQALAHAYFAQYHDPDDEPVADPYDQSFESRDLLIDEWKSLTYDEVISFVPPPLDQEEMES

Compound | IC50
O=C(c1c(F)ccc(NCc2ccccc2)c1F)c1c[nH]c2ncc(-c3cccnc3)cc12 | ≤ 10 µM
Clc1ccc(Nc2ccnc3[nH]ccc23)cc1Cl | ≤ 10 µM
CCCS(=O)(=O)Nc1ccc(F)c(C(=O)c2c[nH]c3ncc(-c4ccccc4)cc23)c1F | ≤ 10 µM
c1cnc2ccc(Nc3ccnc4[nH]ccc34)cc2c1 | ≤ 10 µM
O=C(c1cc(O)ccc1F)c1c[nH]c2ncc(-c3ccccc3)cc12 | ≤ 10 µM
CS(=O)(=O)Nc1ccc(F)c(C(=O)c2c[nH]c3ncc(-c4cccc(S(C)(=O)=O)c4)cc23)c1F | ≤ 10 µM
O=C(c1ccccc1F)c1c[nH]c2ncccc12 | ≤ 10 µM
COC(=O)Nc1ccc(F)c(Cc2c[nH]c3ncc(-c4cccnc4)cc23)c1F | ≤ 10 µM
Cc1ccc(S(=O)(=O)NCc2c[nH]c3ncccc23)cc1 | ≤ 10 µM
CCCNC(=O)Nc1ccc(F)c(C(=O)c2c[nH]c3ncc(-c4cccnc4)cc23)c1F | ≤ 10 µM
O=C(c1cc(F)ccc1F)c1c[nH]c2ncc(-c3ccsc3)cc12 | ≤ 10 µM
CS(=O)(=O)c1cccc(-c2cnc3[nH]cc(C(=O)c4cccc(O)c4F)c3c2)c1 | ≤ 10 µM
CS(=O)(=O)Nc1cccc(-c2cnc3[nH]cc(C(=O)c4cccc(O)c4F)c3c2)c1 | ≤ 10 µM
Nc1cccc(-c2cnc3[nH]cc(C(=O)c4ccccc4F)c3c2)c1 | ≤ 10 µM
CCc1cnc2[nH]cc(C(=O)c3cccc(O)c3)c2c1 | ≤ 10 µM
Brc1ccc(C=Cc2c[nH]c3ncccc23)cc1 | ≤ 10 µM
CCCS(=O)(=O)Nc1ccc(F)c(C(=O)c2c[nH]c3ncc(Cl)cc23)c1F | ≤ 10 µM
Cc1c(O)cccc1C(=O)c1c[nH]c2ncc(-c3cccs3)cc12 | ≤ 10 µM
O=C(c1ccc(O)cc1Cl)c1c[nH]c2ncc(-c3cccs3)cc12 | ≤ 10 µM
CS(=O)(=O)Nc1cccc(-c2cnc3[nH]cc(C(=O)c4c(Cl)ccc(NS(C)(=O)=O)c4F)c3c2)c1 | ≤ 10 µM
COc1cccc(CCc2c[nH]c3ncc(-c4ccsc4)cc23)c1 | ≤ 10 µM
O=C(c1cccc(O)c1F)c1c[nH]c2ncc(-c3cncnc3)cc12 | ≤ 10 µM
O=C(c1cc(O)ccc1F)c1c[nH]c2ncc(Br)cc12 | ≤ 10 µM
CS(=O)(=O)Nc1cccc(-c2cnc3[nH]cc(C(=O)c4cc(NS(C)(=O)=O)ccc4F)c3c2)c1 | ≤ 10 µM
O=C(c1ccccc1F)c1c[nH]c2ncc(-c3ccccn3)cc12 | ≤ 10 µM
Cc1ccccc1C(=O)c1c[nH]c2ncc(-c3cccc(N)c3)cc12 | ≤ 10 µM

Compound | IC50
O=C(Nc1ccc(F)c(C(=O)c2c[nH]c3ncc(-c4cccnc4)cc23)c1F)OCc1ccccc1 | ≤ 10 µM
CC(=O)Nc1cccc(-c2cnc3[nH]cc(C(=O)c4cccc(O)c4F)c3c2)c1 | ≤ 10 µM
O=C(c1c(F)ccc(NS(=O)(=O)c2ccccc2)c1F)c1c[nH]c2ncc(-c3cccnc3)cc12 | ≤ 10 µM
O=S(=O)(NCc1c[nH]c2ncccc12)c1ccc(N2CCOCC2)nc1 | ≤ 10 µM
COc1cccc(C(=O)c2c[nH]c3ncc(-c4cccnc4)cc23)c1 | ≤ 10 µM
CCS(=O)(=O)Nc1ccc(F)c(C(=O)c2c[nH]c3ncc(-c4cccnc4)cc23)c1F | ≤ 10 µM
CCCS(=O)(=O)Nc1ccc(F)c(C(=O)c2c[nH]c3ncc(-c4cccnc4)cc23)c1F | ≤ 10 µM
CCCS(=O)(=O)Nc1ccc(F)c(C(=O)c2c[nH]c3ncc(Br)cc23)c1F | ≤ 10 µM
NC(=O)c1ccc(-c2cnc3[nH]cc(C(=O)c4cccc(O)c4)c3c2)cc1 | ≤ 10 µM
O=C(c1cccc(O)c1F)c1c[nH]c2ncc(-c3cccnc3)cc12 | ≤ 10 µM
O=C(c1cccc(F)c1F)c1c[nH]c2nccc(-c3cc(F)cc(F)c3)c12 | ≤ 10 µM
Cc1c(O)cccc1C(=O)c1c[nH]c2ncc(-c3cccnc3)cc12 | ≤ 10 µM
O=C(c1ccccc1F)c1c[nH]c2ncc(-c3ccsc3)cc12 | ≤ 10 µM
O=S(=O)(NCc1c[nH]c2ncccc12)c1cc(Cl)c(Cl)s1 | ≤ 10 µM
O=C(c1cccc(O)c1F)c1c[nH]c2ncc(-c3cccs3)cc12 | ≤ 10 µM
Cc1nc(-c2ccnc3[nH]ccc23)no1 | ≤ 10 µM
NC(=O)c1ccc(-c2cnc3[nH]cc(C(=O)c4ccccc4F)c3c2)cc1 | ≤ 10 µM
c1ccc2c(Cc3c[nH]c4ncccc34)cccc2c1 | ≤ 10 µM
COc1cccc(C(=O)c2c[nH]c3ncc(-c4cccs4)cc23)c1 | ≤ 10 µM
Oc1cccc(Cc2c[nH]c3ncc(-c4ccsc4)cc23)c1 | ≤ 10 µM
O=C(c1cccc(O)c1)c1c[nH]c2ncc(Br)cc12 | ≤ 10 µM
CC(=O)Nc1cccc(-c2cnc3[nH]cc(C(=O)c4ccccc4F)c3c2)c1 | ≤ 10 µM
Cc1ccc(F)cc1C(=O)c1c[nH]c2ncc(-c3ccsc3)cc12 | ≤ 10 µM
c1cc(Nc2ccc3ncsc3c2)c2cc[nH]c2n1 | ≤ 10 µM
Cc1ccccc1C(=O)c1c[nH]c2ncc(-c3ccsc3)cc12 | ≤ 10 µM
Nc1cccc(-c2cnc3[nH]cc(C(=O)c4ccc(Cl)cc4)c3c2)c1 | ≤ 10 µM

Compound | IC50
O=C(c1cc(O)ccc1F)c1c[nH]c2ncc(-c3cccnc3)cc12 | ≤ 10 µM
O=C(c1c(F)ccc(NS(=O)(=O)c2ccccc2)c1F)c1c[nH]c2ncc(Br)cc12 | ≤ 10 µM
Cc1c(O)cccc1C(=O)c1c[nH]c2ncc(-c3ccccc3)cc12 | ≤ 10 µM
CS(=O)(=O)Nc1ccc(F)c(C(=O)c2c[nH]c3ncc(-c4cccc(S(C)(=O)=O)c4)cc23)c1 | ≤ 10 µM
Cc1cccc(N(C)c2ccnc3[nH]ccc23)c1 | ≤ 10 µM
O=C(c1cc(O)ccc1F)c1c[nH]c2ncc(-c3ccsc3)cc12 | ≤ 10 µM
O=C(c1cccc(Cl)c1Cl)c1c[nH]c2ncc(-c3cccnc3)cc12 | ≤ 10 µM
NC(=O)c1cccc(-c2cnc3[nH]cc(C(=O)c4cc(O)ccc4F)c3c2)c1 | ≤ 10 µM
CS(=O)(=O)Nc1ccc(F)c(C(=O)c2c[nH]c3ncc(-c4ccccc4)cc23)c1 | ≤ 10 µM
CS(=O)(=O)c1cccc(-c2cnc3[nH]cc(C(=O)c4cc(O)ccc4F)c3c2)c1 | ≤ 10 µM
CS(=O)(=O)Nc1ccc(F)c(C(=O)c2c[nH]c3ncc(-c4cccnc4)cc23)c1 | ≤ 10 µM
CS(=O)(=O)Nc1ccc(Cl)c(C(=O)c2c[nH]c3ncc(Br)cc23)c1F | ≤ 10 µM
COc1cccc(C(=O)c2c[nH]c3ncc(-c4cccc(N)c4)cc23)c1 | ≤ 10 µM
O=C(Nc1ccc(Cc2c[nH]c3ncccc23)cc1)Nc1cccc(C(F)(F)F)c1 | ≤ 10 µM
CS(=O)(=O)Nc1ccc(F)c(C(=O)c2c[nH]c3ncc(-c4cccc(C(N)=O)c4)cc23)c1F | ≤ 10 µM
O=C(O)C=Cc1cccc(-c2cnc3[nH]cc(C(=O)c4cc(O)ccc4F)c3c2)c1 | ≤ 10 µM
O=C(Nc1ccc(Cc2c[nH]c3ncccc23)cc1)Nc1ccc(Cl)c(C(F)(F)F)c1 | ≤ 10 µM
Cc1ccc(F)cc1C(=O)c1c[nH]c2ncc(-c3cccc(NS(C)(=O)=O)c3)cc12 | ≤ 10 µM
Nc1cccc(-c2cnc3[nH]cc(C(=O)c4ccc5nsnc5c4)c3c2)c1 | ≤ 10 µM
O=C(c1ccccc1O)c1c[nH]c2ncc(-c3cccs3)cc12 | ≤ 10 µM
O=C(c1cc(O)ccc1F)c1c[nH]c2ncc(-c3cccs3)cc12 | ≤ 10 µM
Cn1cc(C(F)(F)F)c(-c2ccc(S(=O)(=O)NCc3c[nH]c4ncccc34)s2)n1 | ≤ 10 µM
Fc1ccc(/C=C/c2ccnc3[nH]ccc23)cc1 | ≤ 10 µM
O=C(c1cccc(O)c1)c1c[nH]c2ncc(-c3ccsc3)cc12 | ≤ 10 µM
CS(=O)(=O)Nc1cccc(-c2cnc3[nH]cc(C(=O)c4c(F)ccc(NS(C)(=O)=O)c4F)c3c2)c1 | ≤ 10 µM
Cc1c(NS(C)(=O)=O)cccc1C(=O)c1c[nH]c2ncc(-c3ccccc3)cc12 | ≤ 10 µM

Compound | IC50
O=C(c1cc(O)ccc1F)c1c[nH]c2ncccc12 | ≤ 10 µM
O=C(c1c(F)ccc(O)c1F)c1c[nH]c2ncc(-c3cccnc3)cc12 | ≤ 10 µM
COc1cc(O)cc(Cc2c[nH]c3ncc(-c4ccsc4)cc23)c1 | ≤ 10 µM
CCCS(=O)(=O)Nc1ccc(Cl)c(C(=O)c2c[nH]c3ncc(-c4ccccc4)cc23)c1F | ≤ 10 µM
CCc1cnc2[nH]cc(C(=O)c3cccc(OC)c3)c2c1 | ≤ 10 µM
COc1ccc(F)c(C(=O)c2c[nH]c3ncc(-c4cccnc4)cc23)c1 | ≤ 10 µM
CS(=O)(=O)Nc1ccc(F)c(C(=O)c2c[nH]c3ncc(-c4ccccc4)cc23)c1F | ≤ 10 µM
COc1cccc(C(=O)c2c[nH]c3ncc(-c4cccc(C(N)=O)c4)cc23)c1 | ≤ 10 µM
Oc1cc(O)cc(Cc2c[nH]c3ncc(-c4ccsc4)cc23)c1 | ≤ 10 µM
NC(=O)c1cccc(-c2cnc3[nH]cc(C(=O)c4cccc(O)c4F)c3c2)c1 | ≤ 10 µM
Nc1ccc(F)c(C(=O)c2c[nH]c3ncc(-c4cccnc4)cc23)c1F | ≤ 10 µM
Nc1cccc(-c2cnc3[nH]cc(C(=O)c4cccc(Cl)c4Cl)c3c2)c1 | ≤ 10 µM
CS(=O)(=O)Nc1ccc(Cl)c(C(=O)c2c[nH]c3ncc(-c4cccnc4)cc23)c1F | ≤ 10 µM
CCCS(=O)(=O)Nc1ccc(Cl)c(C(=O)c2c[nH]c3ncc(-c4cccnc4)cc23)c1F | ≤ 10 µM
CS(=O)(=O)Nc1ccc(F)c(C(=O)c2c[nH]c3ncc(-c4cccnc4)cc23)c1F | ≤ 10 µM
CS(=O)(=O)Nc1ccc(F)c(C(=O)c2c[nH]c3ncc(Br)cc23)c1 | ≤ 10 µM
Cc1ccc(F)cc1C(=O)c1c[nH]c2ncc(-c3ccc(C(N)=O)cc3)cc12 | ≤ 10 µM
O=C(c1cccc(O)c1)c1c[nH]c2ncc(-c3cccs3)cc12 | ≤ 10 µM
O=C(c1cccc(O)c1F)c1c[nH]c2ncc(-c3ccccc3)cc12 | ≤ 10 µM
CS(=O)(=O)Nc1cccc(-c2cnc3[nH]cc(C(=O)c4cc(O)ccc4F)c3c2)c1 | ≤ 10 µM
CS(=O)(=O)Nc1ccc(F)c(C(=O)c2c[nH]c3ncc(-c4cccc(C(N)=O)c4)cc23)c1 | ≤ 10 µM
O=C(c1cccc(NCc2ccccc2)c1)c1c[nH]c2ncccc12 | ≤ 10 µM
CS(=O)(=O)Nc1ccc(Cl)c(C(=O)c2c[nH]c3ncc(-c4cccc(S(C)(=O)=O)c4)cc23)c1F | ≤ 10 µM
Oc1ccc(F)c(Cc2c[nH]c3ncc(Br)cc23)c1F | ≤ 10 µM

Target: EGFR (human) (UniProt P00533)
Test: not given

EGFR (human), sequence (P00533 whole entry, looked up): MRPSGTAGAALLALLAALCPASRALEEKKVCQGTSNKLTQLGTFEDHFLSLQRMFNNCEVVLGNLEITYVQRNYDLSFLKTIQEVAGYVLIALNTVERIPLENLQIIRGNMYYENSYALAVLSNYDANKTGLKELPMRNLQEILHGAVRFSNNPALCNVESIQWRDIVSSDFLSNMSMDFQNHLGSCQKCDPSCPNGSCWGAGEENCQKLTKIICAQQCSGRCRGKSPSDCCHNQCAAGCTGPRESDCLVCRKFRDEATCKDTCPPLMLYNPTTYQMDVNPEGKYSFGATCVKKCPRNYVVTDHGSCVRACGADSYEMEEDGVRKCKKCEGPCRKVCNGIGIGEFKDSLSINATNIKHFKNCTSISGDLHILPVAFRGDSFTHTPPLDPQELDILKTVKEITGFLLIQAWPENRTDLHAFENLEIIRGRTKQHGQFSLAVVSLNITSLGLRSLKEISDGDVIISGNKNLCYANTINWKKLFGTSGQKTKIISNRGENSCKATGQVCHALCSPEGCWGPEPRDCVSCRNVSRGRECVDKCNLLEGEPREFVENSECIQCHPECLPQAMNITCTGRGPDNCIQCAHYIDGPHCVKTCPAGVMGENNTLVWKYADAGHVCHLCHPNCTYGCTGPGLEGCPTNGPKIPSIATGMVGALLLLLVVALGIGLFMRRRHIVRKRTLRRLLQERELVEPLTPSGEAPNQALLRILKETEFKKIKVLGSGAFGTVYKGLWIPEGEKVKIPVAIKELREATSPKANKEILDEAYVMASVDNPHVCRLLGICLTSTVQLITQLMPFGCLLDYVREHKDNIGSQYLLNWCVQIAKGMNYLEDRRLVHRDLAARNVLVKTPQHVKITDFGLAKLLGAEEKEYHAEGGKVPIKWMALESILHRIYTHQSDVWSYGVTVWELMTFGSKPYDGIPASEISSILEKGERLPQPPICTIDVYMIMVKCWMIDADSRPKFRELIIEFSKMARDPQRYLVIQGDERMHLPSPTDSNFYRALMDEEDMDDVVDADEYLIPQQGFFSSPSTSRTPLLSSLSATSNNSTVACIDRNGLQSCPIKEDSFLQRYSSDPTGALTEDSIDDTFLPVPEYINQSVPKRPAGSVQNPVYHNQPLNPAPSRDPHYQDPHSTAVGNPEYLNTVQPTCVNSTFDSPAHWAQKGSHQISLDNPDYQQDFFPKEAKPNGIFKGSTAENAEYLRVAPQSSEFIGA

Compound | IC50
COc1ccc(-c2cnc3[nH]cc(C#Cc4ccccc4)c3c2)cc1OC | ≤ 10 µM
CCCS(=O)(=O)Nc1ccc(F)c(C(=O)c2c[nH]c3ncc(-c4ccc(OC)cc4)cc23)c1F | ≤ 10 µM
O=C(Nc1ccc(F)c(C(O)c2c[nH]c3ncc(-c4cccnc4)cc23)c1F)OCc1ccccc1 (stereo not given) | ≤ 10 µM
